# BindingDB's records for doi:10.1007/s10822-022-00478-x (Roche Innovation Center Basel, F. Hoffmann-La Roche Ltd., 2022)
# Molecular target: cAMP and cAMP-inhibited cGMP 3',5'-cyclic phosphodiesterase 10A (Homo sapiens, UniProt Q9Y233)
# Test: PDE10A assay
# How it was run: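 Human PDE10A (2 ng/well) preincubated 15 min RT with compound in HEPES pH 7.5, 10 mM MgCl2, BSA, then reacted 15 min with 50 nM [3H]cGMP/cGMP substrate. Stopped with Y-Si SPA beads; bound radioactivity counted, IC50 from four-parameter logistic, pIC50 = −log10(IC50).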
row,IC50 [nM],SMILES
1,34,"CCOC(=O)c1cnn(C)c1C(=O)Nc1ccn2nc(-c3cccnc3)nc2c1 [Roche-Dataset for PDE10A, Compound 268]"
2,4.54,"Cc1ncc(C)n2nc(CCc3nc(N4CCC[C@@H]4C)nn3C)nc12 [Roche-Dataset for PDE10A, Compound 269]"
3,48,"O=C(NCCc1noc(-c2ccccc2)n1)c1nc(C2CC2)cnc1Nc1cncnc1 [Roche-Dataset for PDE10A, Compound 271]"
4,6160,"CNC(=O)c1cc(Cl)c(C)n2nc(CCc3nc(N4CCCC4)nn3C)nc12 [Roche-Dataset for PDE10A, Compound 273]"
5,19,"Cc1cnc(C)n2nc(/C=C/c3nc(N4CCCC4)nn3C3CC3)nc12 [Roche-Dataset for PDE10A, Compound 274]"
6,137,"O=C(NCCc1noc(Cc2ccccc2)n1)c1nc(C2CC2)cnc1Nc1cncnc1 [Roche-Dataset for PDE10A, Compound 275]"
7,20,"CN(CCO)C(=O)c1cnn(C)c1C(=O)Nc1ccn2nc(N3CCOCC3)nc2c1 [Roche-Dataset for PDE10A, Compound 276]"
8,13,"COc1ccccc1-c1cn2c(n1)C[C@H](NC(=O)c1c(C(=O)N(C)C3CC3)cnn1C)CC2 [Roche-Dataset for PDE10A, Compound 278]"
9,790,"CCOC(=O)c1cnn(C)c1C(=O)Nc1ccn2nc(-c3ccnc(F)c3)nc2c1 [Roche-Dataset for PDE10A, Compound 280]"
10,1.16,"Cn1ncc(C(=O)N2CCC2)c1C(=O)Nc1ccn2nc(-c3cccnc3)nc2c1 [Roche-Dataset for PDE10A, Compound 281]"
11,75,"Cc1cc(NC(=O)c2ccc3cc(-c4ccccc4)nn3c2)cc(C)n1 [Roche-Dataset for PDE10A, Compound 286]"
12,52,"Cn1ncc(CO)c1C(=O)Nc1ccn2nc(-c3ccccc3)nc2c1 [Roche-Dataset for PDE10A, Compound 287]"
13,307,"Cn1cc(-c2ccccc2)nc1CCc1cncc(-c2ccn[nH]2)n1 [Roche-Dataset for PDE10A, Compound 289]"
14,337,"CNC(=O)c1c(-c2nc(CCc3nc4c(C)ncc(C)n4n3)n(C)n2)cnn1C [Roche-Dataset for PDE10A, Compound 290]"
15,5910,"O=C1c2ccccc2C(=O)N1CCc1csc(-c2cccnc2)n1 [Roche-Dataset for PDE10A, Compound 292]"
16,9.16,"Cc1nc(C)n2nc(/C=C/c3nc(N4CCCC4)nn3C)nc2c1C [Roche-Dataset for PDE10A, Compound 293]"
17,6500,"Cn1cc(-c2cccc(CCc3nc(-c4ccccc4)cn3C)n2)cn1 [Roche-Dataset for PDE10A, Compound 296]"
18,134,"Cn1cc(-c2ccccc2)nc1COc1ncc(Cl)nc1C(=O)NCc1ccccc1 [Roche-Dataset for PDE10A, Compound 297]"
19,88,"Cn1cc(-c2ccccc2)nc1CCNC(=O)c1cccn2c(C(F)(F)F)nnc12 [Roche-Dataset for PDE10A, Compound 298]"
20,503,"O=C1c2ccccc2C(=O)N1CCc1cnc(-c2ccccc2)[nH]1 [Roche-Dataset for PDE10A, Compound 299]"
21,0.33,"Cc1cc(Cl)c(C)n2nc(/C=C/c3nc(N4CCCC4)nn3C)nc12 [Roche-Dataset for PDE10A, Compound 300]"

row,IC50 [nM],SMILES
1,181,"Cn1ncc(C(=O)NC2COC2)c1C(=O)N[C@@H]1CCn2cc(-c3ccccc3)nc2C1 [Roche-Dataset for PDE10A, Compound 302]"
2,7.17,"COCCNC(=O)c1cc2[nH]c(-c3ccccc3)nc2cc1NC(=O)c1cc(Br)c[nH]c1=O [Roche-Dataset for PDE10A, Compound 303]"
3,0.79,"COCCN(C)C(=O)c1cnn(C)c1C(=O)Nc1cc2nc(-c3ccccc3)nn2cn1 [Roche-Dataset for PDE10A, Compound 304]"
4,35,"COCCNC(=O)c1cc2[nH]c(-c3ccccc3)nc2cc1NC(=O)c1ccnnc1 [Roche-Dataset for PDE10A, Compound 306]"
5,371,"O=C1c2ccccc2CN1c1ccc2nc(-c3ccccc3)[nH]c2c1 [Roche-Dataset for PDE10A, Compound 307]"
6,48,"Cc1c(Cl)nn2c(C)c(/C=C/c3nc(N4CCCC4)nn3C)nc2c1C [Roche-Dataset for PDE10A, Compound 309]"
7,37,"O=C(Nc1ccnc(Cl)c1)c1ccc2cc(-c3ccccc3)nn2c1 [Roche-Dataset for PDE10A, Compound 310]"
8,1550,"Cc1ncc(C)n2nc(/C=C/c3nc(N4CCNCC4)nn3C)nc12 [Roche-Dataset for PDE10A, Compound 311]"
9,269,"Cn1cc(-c2ccccc2)nc1COc1cc(N2CCOCC2)nc(-c2cccnc2)n1 [Roche-Dataset for PDE10A, Compound 312]"
10,5.67,"CCN(C)C(=O)c1cnn(C)c1C(=O)Nc1ccn2nc(N3CCOCC3)nc2c1 [Roche-Dataset for PDE10A, Compound 315]"
11,19,"CN(C)C(=O)c1cnn(C)c1C(=O)N[C@@H]1CCn2cc(-c3ccccc3OC(F)F)nc2C1 [Roche-Dataset for PDE10A, Compound 317]"
12,40,"CN(C)C(=O)c1cnn(C)c1C(=O)Nc1ccn2cc(-c3cccc(Br)c3)nc2n1 [Roche-Dataset for PDE10A, Compound 319]"
13,53,"Cc1ccc(C)c(C(=O)Nc2ccc3cc(-c4ccccc4)nn3c2)n1 [Roche-Dataset for PDE10A, Compound 324]"
14,432,"COC(=O)c1cc(Cl)c(C)n2nc(CCc3nc(N4CCCC4)nn3C)nc12 [Roche-Dataset for PDE10A, Compound 325]"
15,587,"CN(C)c1nc(CCc2nccn2-c2ccccc2)nc2ccccc12 [Roche-Dataset for PDE10A, Compound 326]"
16,38,"O=C(Nc1ccn2nc(-c3ccccc3)nc2c1)c1cc(Cl)nc(Cl)c1 [Roche-Dataset for PDE10A, Compound 327]"
17,9270,"Cc1cccc(CCc2nc(-c3ccccc3)cn2C)n1 [Roche-Dataset for PDE10A, Compound 328]"
18,3.76,"COc1ccccc1-c1cn2c(n1)C[C@H](NC(=O)c1c(C(=O)N3CCC3)cnn1C)CC2 [Roche-Dataset for PDE10A, Compound 330]"
19,84,"CCc1cnc(C)cc1NC(=O)c1ccc2cc(-c3ccccc3)nn2c1 [Roche-Dataset for PDE10A, Compound 331]"
20,10000,"COc1cccc(-c2noc(CCN3C(=O)c4ccccc4C3=O)n2)c1 [Roche-Dataset for PDE10A, Compound 332]"
21,242,"Cc1ncc(Nc2cncnc2)c(C(=O)N[C@@H]2CCN(c3ccc(Cl)cn3)C2)n1 [Roche-Dataset for PDE10A, Compound 336]"

row,IC50 [nM],SMILES
1,1.16,"Cn1ncc(C(=O)N2CC(F)C2)c1C(=O)Nc1ccn2nc(-c3cccnc3)nc2c1 [Roche-Dataset for PDE10A, Compound 337]"
2,16,"Cc1c(NC(=O)c2c(C(=O)N3CCC3)cnn2C)ccn2nc(-c3ccccc3)nc12 [Roche-Dataset for PDE10A, Compound 341]"
3,467,"Cn1nc(N2CCCC2)nc1CCc1nc2c(C#N)cccn2n1 [Roche-Dataset for PDE10A, Compound 342]"
4,4340,"Cn1ncc(C(=O)N2CCOCC2)c1C(=O)N[C@@H]1CCn2cc(-c3ccc(F)cc3)nc2C1 [Roche-Dataset for PDE10A, Compound 346]"
5,129,"COC1CN(C(=O)c2cnn(C)c2C(=O)Nc2ccn3nc(N4CCOCC4)nc3c2)C1 [Roche-Dataset for PDE10A, Compound 348]"
6,0.66,"COCCNC(=O)c1cc2[nH]c(-c3ccccc3)nc2cc1NC(=O)c1cc(C2CC2)cnc1OC [Roche-Dataset for PDE10A, Compound 349]"
7,21,"Cc1cc(C)n2nc(/C=C/c3nc(N4CCCC4)nn3C3CC3)nc2n1 [Roche-Dataset for PDE10A, Compound 350]"
8,173,"COc1ccccc1-c1cn2c(n1)C[C@H](NC(=O)c1c(C(=O)N(C)CCF)cnn1C)CC2 [Roche-Dataset for PDE10A, Compound 351]"
9,21,"CCOC(=O)c1cnn(C)c1C(=O)Nc1ccn2nc(N3CCCC3)nc2c1 [Roche-Dataset for PDE10A, Compound 353]"
10,1.15,"O=C(Nc1cc2nc(-c3ccccc3)cn2cc1Br)c1nc(C2CC2)ccc1Nc1cncnc1 [Roche-Dataset for PDE10A, Compound 354]"
11,9.74,"COc1ccccc1-c1nc2cc(NC(=O)c3c(C(=O)O)cnn3C)ccn2n1 [Roche-Dataset for PDE10A, Compound 356]"
12,0.55,"Cc1c(Cl)cc(Cl)c2nc(CCc3nc(N4CCCC4)nn3C)nn12 [Roche-Dataset for PDE10A, Compound 357]"
13,22,"CNC(=O)c1cc2[nH]c(-c3ccccc3)nc2cc1NC(=O)c1c(Cl)c(C)nn1C [Roche-Dataset for PDE10A, Compound 358]"
14,5600,"CN(c1cncnc1)c1ccc(C2CC2)nc1C(=O)Nc1cc(-c2ccccn2)nn1C [Roche-Dataset for PDE10A, Compound 360]"
15,1000,"Cn1cc(-c2ccccc2)nc1CCc1ncoc1-c1ccccc1 [Roche-Dataset for PDE10A, Compound 361]"
16,188,"COc1ccccc1-c1nc2n(c1Cl)CC[C@@H](NC(=O)c1c(C(=O)N3CCC3)cnn1C)C2 [Roche-Dataset for PDE10A, Compound 362]"
17,73,"Cc1c(Br)cn2nc(/C=C/c3nc(N4CCCC4)n(C)n3)nc2c1C [Roche-Dataset for PDE10A, Compound 364]"
18,144,"COc1cc(NC(=O)c2ccc3cc(-c4ccccc4)nn3c2)ccn1 [Roche-Dataset for PDE10A, Compound 365]"
19,90,"Cn1cc(-c2ccccc2)nc1COc1nc2ccccc2c(=O)[nH]1 [Roche-Dataset for PDE10A, Compound 366]"
20,1070,"O=C(Nc1ccncc1C(F)(F)F)c1ccc2cc(-c3ccccc3)nn2c1 [Roche-Dataset for PDE10A, Compound 367]"
21,22,"CCn1nc(C)cc1C(=O)Nc1cc2nc(-c3ccccc3)[nH]c2cc1C(=O)NC [Roche-Dataset for PDE10A, Compound 369]"
